Values joined by “and” are separate entries in the source; they are usually repeats but may differ in a detail not shown here. Equal values may be shown once. Read-outs that look alike come from different tables or passages of the source.
Assays:
Assay type in all cases: cell-based
[1] = test system: Citrobacter koseri (CKR) isolates; assay: MIC of compounds alone and combined with antibacterials, broth microdilution (CLSI)
Description: (§1) Method 2: MIC of Compounds Alone and Combined with Antibacterials Against Bacterial Isolates
(§2) Compounds of the present invention were assessed against genotyped bacterial strains (Table 3, 4) alone or in combination with an antibacterial (Table 2). […] Log phase bacterial suspensions were adjusted to a final density of 5.10^5 CFU/mL in cation-adjusted Mueller-Hinton broth (ca-MHB; Becton-Dickinson and Company) and added to each well (98 μL). Microplates were incubated for 16-20 h at 35° C. in ambient air. The MIC of the compounds was defined as the lowest concentration of said compounds that prevented bacterial growth as read by visual inspection. The MIC of ATB at each compound concentration was defined as the lowest concentration of ATB that prevented bacterial growth as read by visual inspection.

[2] = test system: Enterobacter aerogenes (EAE) isolates; assay: as above
Description: as §1, §2

[3] = test system: Proteus mirabilis (PMI) isolates; assay: microbe, parasite or virus in culture
Description: as §1, §2

[4] = test system: Providencia stuartii (PST) isolates; assay: MIC of compounds alone and combined with antibacterials, broth microdilution (CLSI)
Description: as §1
(§3) Compounds of the present invention were assessed against genotyped bacterial strains (Table 3, 4) alone or in combination with an antibacterial (Table 2). […]. Briefly, compounds alone according to the invention were prepared in DMSO and spotted (2 μL each) on sterile polystyrene plates (Corning, 3788). Combinations of compounds and antibiotics dilutions were prepared in DMSO and spotted (1 μL each) on sterile polystyrene plates (Corning, 3788). Log phase bacterial suspensions were adjusted to a final density of 5.10^5 CFU/mL in cation-adjusted Mueller-Hinton broth (ca-MHB; Becton-Dickinson and Company) and added to each well (98 μL). Microplates were incubated for 16-20 h at 35° C. in ambient air. The MIC of the compounds was defined as the lowest concentration of said compounds that prevented bacterial growth as read by visual inspection. The MIC of ATB at each compound concentration was defined as the lowest concentration of ATB that prevented bacterial growth as read by visual inspection.

[5] = test system: Salmonella typhimurium (STY) isolates; assay: as above
Description: as §1, §3

[6] = strain CKO ROU, genotype TEM-1, SHV-12, CTX-M-15, OXA-1, OXA-48
[7] = strain CKO UFR149, genotype OXA-48
[8] = strain CKO UFR150, genotype TEM-1, OXA-48
[9] = strain EAE 49469, genotype AmpC
[10] = strain EAE 200261, genotype TEM-x, AmpC
[11] = strain EAE UFR199, genotype TEM-1b, SHV-12, KPC-2, OXA-9
[12] = strain EAE UFR201, genotype TEM-1, SHV-12, CTX-M-15
[13] = strain EAE UFR202, genotype TEM-24
[14] = strain EAE UFR213, genotype TEM-24
[15] = strain PMI UFR82, genotype CMY-2
[16] = strain PMI UFR120, genotype TEM-1, SHV-11, CTX-M-14
[17] = strain PMI UFR121, genotype TEM-1, TEM-52
[18] = strain PMI UFR122, genotype TEM-1, CTX-M-15
[19] = strain PMI UFR123, genotype CTX-M-1
[20] = strain PMI UFR124, genotype CTX-M-2
[21] = strain PMI UFR125, genotype CTX-M-71
[22] = strain PMI UFR126, genotype TEM-2, PER-1
[23] = strain PMI UFR127, genotype VEB-1
[24] = strain PMI UFR129, genotype TEM-1, VEB-6
[25] = strain PMI UFR130, genotype CMY-2
[26] = strain PMI UFR237, genotype VEB-6
[27] = strain PST UFR94, genotype CTX-M-14
[28] = strain PST UFR95, genotype TEM-24
[29] = strain PST UFR235, genotype VEB-1

For `CC1(C)S[C@@H]2[C@H](NC(=O)[C@H](N)c3ccc(O)cc3)C(=O)N2[C@H]1C(=O)O` [AMX, Amoxicillin], the “MIC ATB in combination” value [1] was over 128 µg/mL, the “MIC ATB in combination” value ([1]; CKO ROU, AF2 @ 8 μg/mL) was 8 µg/mL and the MIC [1, 6] was over 256 µg/mL. The MIC [1, 7] was over 128 µg/mL, the MIC [1, 8] was over 128 µg/mL and the “MIC ATB in combination” value ([2]; EAE 49469, AF2 @ 8 μg/mL) was “<=0.25 μg/mL”. The “MIC ATB in combination” value ([2]; EAE 49469, CLA @ 4 μg/mL) was over 128 µg/mL, the “MIC ATB in combination” value ([2]; EAE 200261, AF2 @ 8 μg/mL) was 16 µg/mL and the “MIC ATB in combination” value ([2]; EAE 200261, CLA @ 4 μg/mL) was over 128 µg/mL. The “MIC ATB in combination” value ([2]; EAE UFR199, CLA @ 4 μg/mL) was over 128 µg/mL, the “MIC ATB in combination” value ([2]; EAE UFR201, CLA @ 4 μg/mL) was 16 µg/mL and the “MIC ATB in combination” value ([2]; EAE UFR202, CLA @ 4 μg/mL) was over 128 µg/mL. The “MIC ATB in combination” value ([2]; EAE UFR207, CLA @ 4 μg/mL) was 32 µg/mL, the “MIC ATB in combination” value ([2]; EAE UFR213, CLA @ 4 μg/mL) was over 128 µg/mL and the MIC [2, 9] was over 1024 µg/mL. It also gave an MIC [2, 10] of over 256 µg/mL, an MIC [2, 11] of over 128 µg/mL and an MIC [2, 12] of over 128 µg/mL. For the same compound, the MIC [2, 13] was over 128 µg/mL, the MIC [2, 14] was over 128 µg/mL and the “MIC ATB in combination” value ([3]; PMI UFR82, AF2 @ 8 μg/mL) was under 0.25 µg/mL. For the same compound, the “MIC ATB in combination” value ([3]; PMI UFR126, CLA @ 4 μg/mL) was 16 µg/mL, the “MIC ATB in combination” value ([3]; PMI UFR127, CLA @ 4 μg/mL) was 32 µg/mL and the “MIC ATB in combination” value ([3]; PMI UFR129, CLA @ 4 μg/mL) was 2 µg/mL. The “MIC ATB in combination” value ([3]; PMI UFR237, CLA @ 4 μg/mL) was 4 µg/mL, the MIC [3, 15] was 256 µg/mL and the MIC [3, 16] was over 128 µg/mL. For the same compound, the MIC [3, 17] was over 128 µg/mL, the MIC [3, 18] was over 128 µg/mL and the MIC [3, 19] was over 128 µg/mL. It also gave an MIC [3, 20] of over 128 µg/mL, an MIC [3, 21] of over 128 µg/mL and an MIC [3, 22] of over 128 µg/mL. The MIC [3, 23] was over 128 µg/mL, the MIC ([3]; strain PMI UFR128, genotype VEB-1, OXA-10) was over 128 µg/mL and the MIC [3, 24] was over 128 µg/mL. The MIC [3, 25] was over 128 µg/mL, the MIC ([3]; strain PMI UFR131, genotype CMY-16, OXA-1, OXA-10, NDM-1, ArmA) was over 128 µg/mL and the MIC ([3]; strain PMI UFR132, genotype VEB-6, DHA-1, NDM-1, AphA6, AacA4) was over 128 µg/mL. The MIC ([3]; strain PMI UFR133, genotype OXA-23) was over 128 µg/mL, the MIC [3, 26] was over 128 µg/mL and the “MIC ATB in combination” value [4] was 128 µg/mL and >128 µg/mL. The “MIC ATB in combination” value ([4]; PST UFR120, CLA @ 4 μg/mL) was 8 µg/mL, the “MIC ATB in combination” value ([4]; PST UFR121, CLA @ 4 μg/mL) was 4 µg/mL and the “MIC ATB in combination” value ([4]; PST UFR122, CLA @ 4 μg/mL) was 8 µg/mL. The “MIC ATB in combination” value ([4]; PST UFR123, CLA @ 4 μg/mL) was 16 µg/mL, the “MIC ATB in combination” value ([4]; PST UFR125, CLA @ 4 μg/mL) was 4 µg/mL and the MIC [4, 27] was over 128 µg/mL. For the same compound, the MIC [4, 28] was over 128 µg/mL, the MIC ([4]; strain PST UFR98, genotype TEM-1, CMY-6, OXA-1, NDM-1, RmtC) was over 128 µg/mL and the MIC [4, 29] was over 128 µg/mL. For the same compound, the “MIC ATB in combination” value ([5]; STY S3371, AF2 @ 8 μg/mL) was under 0.25 µg/mL.

Work on `CO/N=C(\C(=O)N[C@@H]1C(=O)N2C(C(=O)O)=C(COC(N)=O)CS[C@H]12)c1ccco1` [FUR, Cefuroxime] yielded an MIC [1, 6] of 64 µg/mL, an MIC [1, 7] of over 256 µg/mL and an MIC [1, 8] of 64 µg/mL. For the same compound, the MIC [2, 9] was over 128 µg/mL, the MIC [2, 10] was over 256 µg/mL and the MIC [2, 11] was over 256 µg/mL. It also gave an MIC [2, 12] of over 256 µg/mL, an MIC [2, 13] of over 256 µg/mL and an MIC [2, 14] of over 256 µg/mL. For the same compound, the MIC [3, 15] was 16 µg/mL, the MIC [3, 16] was over 256 µg/mL and the MIC [3, 17] was over 256 µg/mL. The MIC [3, 18] was over 256 µg/mL, the MIC [3, 19] was over 256 µg/mL and the MIC [3, 20] was over 256 µg/mL. It also gave an MIC [3, 21] of over 256 µg/mL, an MIC [3, 22] of over 256 µg/mL and an MIC [3, 23] of over 256 µg/mL. It also gave an MIC [3, 24] of over 256 µg/mL, an MIC [3, 25] of 8 µg/mL and an MIC [3, 26] of over 256 µg/mL. It also gave an MIC [4, 27] of over 256 µg/mL, an MIC [4, 28] of 128 µg/mL and an MIC [4, 29] of 256 µg/mL. The MIC ([5]; strain STY S3371, genotype OXA-1) was 32 µg/mL.

`C=CC1=C(C(=O)O)N2C(=O)[C@@H](NC(=O)/C(=N\O)c3csc(N)n3)[C@H]2SC1` [CDR, Cefdinir] was tested, and the MIC ([1]; Citrobacter koseri) was over 256 µg/mL, the MIC ([2]; Klebsiella aerogenes) was over 256 µg/mL and the MIC ([2]; Klebsiella aerogenes, strain EAE 49469, genotype AmpC, read-out: MIC) was over 128 µg/mL. The MIC ([2]; Klebsiella aerogenes, strain EAE UFR202, genotype TEM-24, read-out: MIC) was 256 µg/mL, the MIC ([2]; Klebsiella aerogenes, strain EAE UFR213, genotype TEM-24, read-out: MIC) was 256 µg/mL and the MIC ([3]; Proteus mirabilis, strain PMI UFR82, genotype CMY-2, read-out: MIC) was 16 µg/mL. It also gave an MIC ([3]; Proteus mirabilis, strain PMI UFR120, genotype TEM-1, SHV-11, CTX-M-14, read-out: MIC) of 64 µg/mL, an MIC ([3]; Proteus mirabilis, strain PMI UFR121, genotype TEM-1, TEM-52) of over 256 µg/mL and an MIC ([3]; Proteus mirabilis, strain PMI UFR122, genotype TEM-1, CTX-M-15, read-out: MIC) of 16 µg/mL. For the same compound, the MIC ([3]; Proteus mirabilis, strain PMI UFR123, genotype CTX-M-1) was over 256 µg/mL, the MIC ([3]; Proteus mirabilis, strain PMI UFR124, genotype CTX-M-2) was over 256 µg/mL and the MIC ([3]; Proteus mirabilis, strain PMI UFR125, genotype CTX-M-71, read-out: MIC) was 256 µg/mL. For the same compound, the MIC ([3]; Proteus mirabilis, strain PMI UFR126, genotype TEM-2, PER-1) was over 256 µg/mL, the MIC ([3]; Proteus mirabilis, strain PMI UFR127, genotype VEB-1) was over 256 µg/mL and the MIC ([3]; Proteus mirabilis, strain PMI UFR129, genotype TEM-1, VEB-6) was over 256 µg/mL. For the same compound, the MIC ([3]; Proteus mirabilis, strain PMI UFR130, genotype CMY-2, read-out: MIC) was 16 µg/mL, the MIC ([3]; Proteus mirabilis, strain PMI UFR237, genotype VEB-6) was over 256 µg/mL and the MIC ([4]; Providencia stuartii, strain PST UFR94, genotype CTX-M-14, read-out: MIC) was 64 µg/mL. The MIC ([4]; Providencia stuartii, strain PST UFR95, genotype TEM-24, read-out: MIC) was 32 µg/mL, the MIC ([4]; Providencia stuartii, strain PST UFR235, genotype VEB-1, read-out: MIC) was 256 µg/mL and the MIC ([5]; Salmonella enterica, TYPHIMURIUM) was 0.5 µg/mL.

Source: patent publication US20200017495A1, “NOVEL HETEROCYCLIC COMPOUNDS AND THEIR USE IN PREVENTING OR TREATING BACTERIAL INFECTIONS” (priority 2017, published 2020)
